From US10112935B2, “Indazolyl thiadiazolamines and related compounds for inhibition of Rho-associated protein kinase and the treatment of disease” (Lycera Corporation, priority 2015, dated 2018)

Legend:
[1] = molecular target: GST-tagged human ROCK1 catalytic domain 1-477 (Homo sapiens (Human), UniProt Q13464); assay: Inhibition of Rho-associated protein kinase isoform 1 (LANCE Ultra ULight-CREBtide FRET kinase assay); format: biochemical; settings: 30 μM was the highest concentration analyzed
Experimental: (§1) Exemplary compounds were tested for ability to inhibit Rho-associated protein kinase isoform 1 (ROCK1) and Rho-associated protein kinase isoform 2 (ROCK2). Assay procedures and results are described below.
(§2) Protein constructs were purified from a baculovirus expression system. The peptide substrate was fluorescent LANCE® Ultra ULight-CREBtide: […] (PerkinElmer, # TRF0107-D). […] After a 90 minute incubation at room temperature on a shaker table, the kinase reaction was stopped by addition of 10 mM EDTA, and phosphorylation of the substrate was detected by adding 1 nM LANCE® Ultra Europium-anti-phospho-CREB (ser133) antibody (PerkinElmer, # TRF0200-D) and incubating for 60 minutes on a shaker at room temperature. The flurorescence resonance energy transfer (FRET) signals were read and analyzed on an Envision™ 2103 Multilabel Reader (Perkin Elmer).

[2] = molecular target: GST-tagged human ROCK2 catalytic domain 1-553 (Homo sapiens (Human), UniProt O75116); assay: Inhibition of Rho-associated protein kinase isoform 2 (LANCE Ultra ULight-CREBtide FRET kinase assay); format: biochemical; settings: for IC50: 30 μM was the highest concentration analyzed; for Selectivity for ROCK2 over ROCK1 (IC50 ROCK1 / IC50 ROCK2): selectivity ROCK2 vs ROCK1
Experimental: as §1, §2

GST-tagged human ROCK1 catalytic domain 1-477, sequence (Q13464 1-477): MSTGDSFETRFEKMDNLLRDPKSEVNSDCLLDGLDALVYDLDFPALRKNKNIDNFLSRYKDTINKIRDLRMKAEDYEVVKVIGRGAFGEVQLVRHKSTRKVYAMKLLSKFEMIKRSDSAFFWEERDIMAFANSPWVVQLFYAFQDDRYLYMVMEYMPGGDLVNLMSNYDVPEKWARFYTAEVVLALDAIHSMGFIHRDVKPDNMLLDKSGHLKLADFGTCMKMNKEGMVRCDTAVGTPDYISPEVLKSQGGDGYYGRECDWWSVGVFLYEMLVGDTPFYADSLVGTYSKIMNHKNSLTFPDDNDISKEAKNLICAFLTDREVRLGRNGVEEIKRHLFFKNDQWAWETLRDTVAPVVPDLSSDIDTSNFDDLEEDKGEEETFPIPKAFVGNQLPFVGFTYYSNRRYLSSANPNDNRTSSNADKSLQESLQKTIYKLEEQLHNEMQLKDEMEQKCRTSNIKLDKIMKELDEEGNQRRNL
GST-tagged human ROCK2 catalytic domain 1-553, sequence (O75116 1-553): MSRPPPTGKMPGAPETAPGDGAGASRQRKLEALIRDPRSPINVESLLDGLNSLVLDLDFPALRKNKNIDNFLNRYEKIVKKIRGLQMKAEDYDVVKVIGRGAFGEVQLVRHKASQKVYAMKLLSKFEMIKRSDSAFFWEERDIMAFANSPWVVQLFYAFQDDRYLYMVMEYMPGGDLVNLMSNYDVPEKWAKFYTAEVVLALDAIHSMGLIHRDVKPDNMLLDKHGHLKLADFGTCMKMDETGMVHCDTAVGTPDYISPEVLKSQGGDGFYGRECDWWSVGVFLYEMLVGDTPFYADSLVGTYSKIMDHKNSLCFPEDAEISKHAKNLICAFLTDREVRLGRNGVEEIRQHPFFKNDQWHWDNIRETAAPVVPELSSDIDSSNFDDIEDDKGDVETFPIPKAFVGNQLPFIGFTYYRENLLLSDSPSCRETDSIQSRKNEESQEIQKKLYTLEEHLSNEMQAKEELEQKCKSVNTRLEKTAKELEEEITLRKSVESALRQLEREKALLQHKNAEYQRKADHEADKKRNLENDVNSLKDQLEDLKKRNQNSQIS

SMILES | IC50 [1] | IC50 [2] | Selectivity for ROCK2 over ROCK1 (IC50 ROCK1 / IC50 ROCK2) [2]
CC(C(=O)Nc1cc(-c2nnc(Nc3ccc4[nH]ncc4c3Cl)s2)ccn1)c1ccc(F)cc1 (centres unmarked) [Example 34, N-(4-(5-((4-Chloro-1H-indazol-5-yl)amino)-1,3,4-thiadiazol-2-yl)pyridin-2-yl)-2-(4-fluorophenyl)propanamide] | < 1 µM | < 1 µM | >50
C[C@H](N)C(=O)Nc1cccc(-c2nnc(Nc3ccc4[nH]ncc4c3Cl)s2)c1 [Example 35AA] | 1 to 15 µM | < 1 µM | >5
O=C(Nc1cccc(-c2nnc(Nc3ccc4[nH]ncc4c3Cl)s2)c1)C1CCNCC1 [Example 35AC] | 1 to 15 µM |  | 
CC(=O)Nc1cc(-c2nnc(Nc3ccc4[nH]ncc4c3Cl)s2)ccn1.O=C(O)C(F)(F)F [Example 35AE] | < 1 µM | < 1 µM | <5
O=C(Cc1cccc(C(F)(F)F)n1)Nc1cccc(-c2nnc(Nc3ccc4[nH]ncc4c3Cl)s2)c1 [Example 35AI] | < 1 µM | < 1 µM | >5
N[C@@H](Cc1ccc(O)cc1)C(=O)Nc1cccc(-c2nnc(Nc3ccc4[nH]ncc4c3Cl)s2)c1.O=C(O)C(F)(F)F [Example 35AK] | < 1 µM | < 1 µM | <5
CC(=O)Nc1cccc(-c2nnc(Nc3ccc4[nH]ncc4c3C(F)(F)F)s2)c1 [Example 35AL] | 1 to 15 µM | < 1 µM | >5
CC(=O)c1cccc(-c2nnc(Nc3ccc4[nH]ncc4c3Cl)s2)c1 [Example 35AM] | > 30 µM | < 1 µM | >100
Cc1ccc(CC(=O)Nc2cccc(-c3nnc(Nc4ccc5[nH]ncc5c4Cl)s3)c2)nc1 [Example 35AO] | > 30 µM | < 1 µM | >100
CC(C)(CO)NC(=O)c1cccc(-c2nnc(Nc3ccc4[nH]ncc4c3Cl)s2)c1 [Example 35AR] | 1 to 15 µM | < 1 µM | >5
O=C(Nc1cccc(-c2nnc(Nc3ccc4[nH]ncc4c3Cl)s2)c1)c1cc(O)cc(O)c1 [Example 35AS] | < 1 µM | < 1 µM | >50
O=C(Nc1cccc(-c2nnc(Nc3ccc4[nH]ncc4c3Cl)s2)c1)c1ccc(F)cc1 [Example 35AW] | < 1 µM | < 1 µM | >5
O=C(Nc1cc(-c2nnc(Nc3ccc4[nH]ncc4c3Cl)s2)ccn1)N1CCOCC1 [Example 35A] | < 1 µM | < 1 µM | >5
CC(C)C[C@H](N)C(=O)Nc1cccc(-c2nnc(Nc3ccc4[nH]ncc4c3Cl)s2)c1 [Example 35BA] | < 1 µM | < 1 µM | >5
CC(=O)Nc1cc(F)c(F)c(-c2nnc(Nc3ccc4[nH]ncc4c3Cl)s2)c1.O=C(O)C(F)(F)F [Example 35BB] | > 30 µM | < 1 µM | >100
CC(=O)Nc1cccc(-c2nnc(N(C)c3ccc4[nH]ncc4c3Cl)s2)c1 [Example 35BC] | > 30 µM | < 1 µM | >75
NC(Cc1ccc(Cl)cc1)C(=O)Nc1cccc(-c2nnc(Nc3ccc4[nH]ncc4c3Cl)s2)c1 (centres unmarked) [Example 35BF] | 1 to 15 µM | < 1 µM | >5
CC1(C(=O)Nc2cccc(-c3nnc(Nc4ccc5[nH]ncc5c4Cl)s3)c2)CCCCC1 [Example 35L] | 1 to 15 µM |  | 
CCOC(=O)N(c1nnc(-c2cccc(NC(=O)Cc3ccc(F)cc3)c2)s1)c1ccc2[nH]ncc2c1Cl [Example 54A] |  | 1 to 15 µM | 

Continued, values first:

IC50 [1] | IC50 [2] | Selectivity for ROCK2 over ROCK1 (IC50 ROCK1 / IC50 ROCK2) [2] | SMILES
1 to 15 µM | < 1 µM | >5 | O=C(Nc1cccc(-c2nnc(Nc3ccc4[nH]ncc4c3Cl)s2)c1)C1CNC1 [Example 35AD]
1 to 15 µM | < 1 µM | >5 | CC(=O)Cc1cccc(-c2nnc(Nc3ccc4[nH]ncc4c3Cl)s2)c1 [Example 35AF]
> 30 µM | < 1 µM | >100 | CC(=O)Oc1cccc(-c2nnc(Nc3ccc4[nH]ncc4c3Cl)s2)c1 [Example 35AG]
< 1 µM | < 1 µM | <5 | CC(C(=O)Nc1cccc(-c2nnc(Nc3ccc4[nH]ncc4c3Cl)s2)c1)c1ccccn1 (centres unmarked) [Example 35AH]
> 30 µM | < 1 µM | >75 | OC1(c2cccc(-c3nnc(Nc4ccc5[nH]ncc5c4Cl)s3)c2)COC1 [Example 35AJ]
< 1 µM | < 1 µM | <5 | O=C(Cc1ncccn1)Nc1cccc(-c2nnc(Nc3ccc4[nH]ncc4c3Cl)s2)c1 [Example 35AP]
> 30 µM | < 1 µM | >100 | COc1ncc(C(=O)Nc2cccc(-c3nnc(Nc4ccc5[nH]ncc5c4Cl)s3)c2)cn1.O=C(O)C(F)(F)F [Example 35AU]
1 to 15 µM | < 1 µM | >5 | N[C@@H](Cc1ccccc1)C(=O)Nc1cccc(-c2nnc(Nc3ccc4[nH]ncc4c3Cl)s2)c1 [Example 35AV]
> 30 µM | < 1 µM | >75 | O=C(O)Cn1cc(C(=O)Nc2cc(F)c(F)c(-c3nnc(Nc4ccc5[nH]ncc5c4)s3)c2)cn1 [Example 35AY]
> 30 µM | 1 to 15 µM | >5 | CC(=O)N(C)c1cccc(-c2nnc(Nc3ccc4[nH]ncc4c3Cl)s2)c1 [Example 35AZ]
> 30 µM | < 1 µM | >100 | O=C(Cc1ncc[nH]1)Nc1cccc(-c2nnc(Nc3ccc4[nH]ncc4c3Cl)s2)c1 [Example 35BD]
> 30 µM | < 1 µM | >100 | CCOc1ccc(CC(=O)Nc2cccc(-c3nnc(Nc4ccc5[nH]ncc5c4Cl)s3)c2)cc1 [Example 35BE]
> 30 µM | < 1 µM | >100 | O=C(Cc1ccon1)Nc1cccc(-c2nnc(Nc3ccc4[nH]ncc4c3Cl)s2)c1 [Example 35BG]
< 1 µM | < 1 µM | >100 | Cn1cc(CC(=O)Nc2cccc(-c3nnc(Nc4ccc5[nH]ncc5c4Cl)s3)c2)cn1 [Example 35BH]
1 to 15 µM | < 1 µM | >100 | Cc1cnn(CC(=O)Nc2cccc(-c3nnc(Nc4ccc5[nH]ncc5c4Cl)s3)c2)c1 [Example 35BI]
1 to 15 µM |  |  | CN1CC(C(=O)Nc2cccc(-c3nnc(Nc4ccc5[nH]ncc5c4Cl)s3)c2)C1 [Example 35X]
 | 1 to 15 µM |  | Clc1c(Nc2nnc(-c3cccc4c3ncn4CCN3CCCC3)s2)ccc2[nH]ncc12 [Example 56A]
